Measurements published in patent publication US20250049741A1, “COMPOSITION FOR PREVENTING OR TREATING ALZHEIMER'S DISEASE COMPRISING PHOSPHOLIPASE C ACTIVATOR AS AN ACTIVE INGREDIENT” (Korea University Research and Business Foundation, priority 2021, published 2025).

Experiments:
[1] = system: hippocampal CA3-CA1 excitatory synapses; experiment: S-eCB mobilization induced spike timing-dependent potentiation (tLTP) protocol, EPSP slope; type: cell-based, Sprague-Dawley rats; details: m-3M3FBS 30 μM; AβO-treated rat hippocampal slices; similar to level in DMSO-treated slices
Experimental: Soluble AβO was prepared according to a previous study (BMC Biol. 2020; 18(1):7). Specifically, Aβ1-42 (Aβ) and a scrambled form of Aβ as a control peptide were purchased in powder form. Aβ and scrambled Aβ were dissolved for monomerization in 1,1,1,3,3,3-hexafluoro-2-propanol (HFIP, Sigma Aldrich, USA) at a final concentration of 1 mM, and the solution was incubated for 90 minutes. After the HFIP was evaporated, the remaining thin and clear film of Aβ or scrambled Aβ was dissolved in dimethyl sulfoxide (DMSO, Sigma Aldrich, USA) to prepare 5 mM Aβ or scrambled Aβ stocks, which were aliquoted and frozen at −20° C. Aβ or scrambled Aβ stocks were thawed and diluted to 100 μM in artificial cerebrospinal fluid (ACSF). Thereafter, Aβ or scrambled Aβ stocks were incubated for oligomerization for 18 hours. The final AβO or scrambled AβO stock solution was diluted to a final concentration of 200 nM in 31.2 ml of ACSF, and rat hippocampal slices were treated with the stock solution for 20 minutes in a recovery chamber before measurement of brain signals. In control experiments for normal brain conditions using a vehicle, rat hippocampal slices were treated with 0.004% DMSO in ACSF.
The brains of SD rats were isolated following decapitation under isoflurane-induced anesthesia and transferred into ice-cold ACSF containing 126 mM NaCl, […], 1.25 mM NaH2PO4, 2 mM MgSO4, 2 mM CaCl2), 25 mM NaHCO3, and 10 mM glucose (pH 7.2 to 7.4). The ACSF was continuously oxygenated with 95% O2/5% CO2. Horizontal hippocampal slices (350 μm thickness) were obtained using a vibratome (VT1000S, Leica Biosystems, Germany) and immediately incubated at room temperature in a submerged chamber perfused with oxygenated ACSF for at least 1 hour.

5XFAD mice = experiment: Contextual fear conditioning (CFC), freezing response; type: in vivo; details: m-3M3FBS-injected 5XFAD mice
Excerpt: To test the acute effect of AβO on hippocampal S-eCB mobilization, hippocampal slices from Sprague-Dawley rats (SD, 2 to 3 weeks old, […] Biolink, Co., Ltd., Korea) were used. Male and female rats were used in all in vitro experiments. To test the chronic effect of AβO on hippocampus-dependent memory impairments caused by amyloidosis, the 5XFAD mouse model (6 to 7 months old, #34840-JAX, Jackson Laboratory, USA), which is a mouse model of Alzheimer's disease that mimics AβO depositions, was used. C57BL/6 mice (6 to 7 months old, KOATECH, Korea) were used as wild type (WT) control mice for 5XFAD mice. Male 5XFAD and C57BL/6 mice were used for all in vivo behavioral experiments. […] A ceiling-mounted video camera recorded the behavior activity, and fed the corresponding video into a customized computer software (MATLAB, USA). […] Behavioral mobility data collected during the contextual conditioning experiments were automatically detected using the gray scaling method of EthoVision XT (Noldus, USA). […] Since a body-freezing response (freezing) is considered a conditioned response to CFC during the memory session, the body-freezing response was detected when the threshold was below the 2.0% threshold of mobility. That is, this means that there could be no more than a 2.0% change in the pixels of a detected mouse between the current sample and the previous sample. […]

Compound: Cc1cc(C)c(S(=O)(=O)Nc2cccc(C(F)(F)F)c2)c(C)c1 [m-3M3FBS]
- tLTP in AβO-treated slices [1]: completely recovered
- freezing responses during memory recall compared to DMSO-injected 5XFAD mice (5XFAD mice): remarkably increased
